# Results as given in US3963758A, “2-(Benzofuroyl)phenyl acetic acids” (Serdex - Societe d'Etudes, de Recherches, de Diffusion et …, priority 1973, dated 1976).
# What was measured:
# [1] = system: Turfyl nicotinate (Trafuril)-induced erythema; assay: Turfyl nicotinate (Trafuril)-induced erythema; format: in vivo; details: oral, male albino guinea-pigs; for ED50: Cavia porcellus; for ED50 / Trafuril ED50: 1 hour prior to test
# Experimental: 2 - Turfyl nicotinate (Trafuril) -induced erythema
# A slight modification of the HAINING method (Br. Jl. Pharmacol., 1963, 21, 104-12) is used:
# The test is carried out with homogeneous lots of 6-12 male albino guinea-pigs weighing 300-400 g, after careful depilation of the skin of their backs on the previous day.
# On the day of the test, a disk for antibiotic sensitivity determination impregnated with a 5% alcoholic Turfyl nicotinate solution is applied during one minute on the lumbar area.
# The effect produced is recorded after five minutes.
# The results are rated according to an "all or nothing" scale, according to whether or not an erythema appears at the locus of application of the disk.
# The treatment is administered orally one hour prior to the test, under an uniform volume of 1 ml/kg body weight; the test materials are homogeneously suspended with 3% gum arabic.
# The reference animals are administered an equal volume of carrier.
# The percent erythema obtained in the treated animals is compared with that obtained in the simultaneously tested reference lot.
# [2] = system: adjuvant arthritis (Mycobacterium butyricum); assay: Adjuvant arthritis; format: in vivo; details: at 20 mg/kg; oral, daily, 14th to 28th day; male rats
# Experimental: According to the works by PEARSON C. M. (J. Chronic. Dis., 1963, 16, 863-74), JONES R. D. and WARD J. R. (Recent progress in hormone research, vol. XIX, 1963, Ac. Press), WARD T. R., JONES R. S. (Arthritis and Rheumatism, 1962, 5, 557-64).
# The tests are carried out in male rats weighing 151 g ± 20 g. On day 0, the animals are given intradermally, at the base of the tail, an 0.05 ml injection of a suspension of Mycobacterium butyricum in paraffin oil (12 mg killed microbial bodies/ml). The animals are selected on the 14th day and are distributed into homogeneous lots of 15 animals.
# The treatment is administered orally, daily, from the 14th to the 28th day.
# The chronic arthritis is evaluated according to two criteria:
# Arthritis index, by separate scoring of the injuries (erythema, edema, distortions) of each of the four limbs (according to a scoring scale from 0 to 3; maximum score: 12) in each animal on the 14th day, the 18th day, the 21st day, the 24th day and the 28th day (the scoring is effected blind, by two different experimenters).
# Sedimentation rate according to KOWARSKI (pipette held at an angle of 45°; recording time: 30 minutes).
# The blood sample is taken by the retro-orbicular route. The determination is effected on the 14th, the 21st and the 28th day. […]
# [3] = Acute toxicity, oral, mice; details: mouse, in vivo, fasting mice, 14 days observation
# Experimental: (§1) Acute toxicity is determined by oral administration of the test material in fasting mice and rats.
# (§2) The compound of Example 1 is homogeneously suspended in a carrier comprising a 3% gum arabic solution.
# (§3) The animals are kept under observation during 14 days after the treatment.
# [4] = system: phenylbenzoquinone-induced writhing movements; assay: Analgesic activity, Siegmund Test (phenylbenzoquinone writhing); format: in vivo; details: mice; for ED50: Mus musculus, ip; for ED50 / Siegmund ED50: test material 1 hour before phenylbenzoquinone i.p.
# Experimental: Siegmund Test (Proc. Soc. Exp. Biol. Med., 1957, 95, 729-31)
# Intraperitoneal injection of 0.25 ml of an aqueous-alcoholic 2-phenyl-1,4-benzoquinone solution at a concentration of 0.02% induces in mice a specific syndrome characterized by the stretching of the hind paws and writhing movements of the trunk.
# The tests are carried out with homogeneous lots of 20-30 mice having an average weight of 20 g.
# The animals are administered the test material at time zero. One hour later, phenylbenzoquinone is administered by the intraperitoneal route. The animals are individually kept under observation during 5 minutes, between the fifth and the tenth minute after phenylbenzoquinone injection.
# The present activity of the test material is evaluated by comparing the number of writhing movements of the treated animals with respect to the reference animals.
# [5] = system: carrageenin-induced edema; assay: Acute carrageenin-induced edema; format: in vivo; details: oral, male rats; for ED50: Rattus norvegicus; for ED50 / Carrageenin-induced edema ED50: 1 hour prior to carrageenin, edema at 3 hours; for Carrageenin-induced edema percent protection: 3 hours; for Carrageenin-induced edema ED50: 180 min
# Experimental: c. Anti-inflammatory activity
# 1- Acute carrageenin-induced edema (Winster C. A., Risley E. A., Nuss G.W., Proc. Soc. Biol. Med., 1962, 3, 544-7)
# Subplantar injection in the paw of rats of 0.05 ml of an aqueous gel containing 1% carrageenin induces a local edema which may be measured by means of an electric mercury plethysmometer.
# Determination of the volume of the forepaw prior, and three hours after the carrageenin injection, makes it possible to calculate the percent inflammation.
# The treatment is administered orally, one hour prior to carrageenin administration.
# The tests are conducted only with homogeneous lots of 10 male rats weighing 180 g ± 10 g.
# The resulting edema is evaluated for each animal by means of the ratio: [formula] in which:
# Vo of the paw at time 3 hrs Vo = volume of the paw at time zero
# The protection noted under the effect of the test material may be evaluated by comparing the percent edema determined in the treated lot with respect to the reference lot.
# [6] = Acute toxicity, oral, rats; details: rat, in vivo, fasting rats, 14 days observation
# Experimental: as §1, §2, §3
# [7] = system: Bradykinine-induced bronchoconstriction; assay: Anti-bradykinine activity (Konzett and Rossler technique); format: in vivo, guinea-pig; details: I.V., dosage of 100 γ/kg; bradykinine 20 γ/kg I.V.
# Text: c. Anti-bradykinine activity
# The antagonistic action of the compound described in Example 1 was studied with respect to a Bradykinine-induced bronchoconstriction in guinea-pig (20 γ/kg I.V.).
# The technique used was the conventional technique described by KONZETT and ROSSLER (Arch. Exp. Path. Pharmakol., 195, 71-74) and later by HARICHAUX (C.R. Soc. Biol., 158, 12, 2437-2441).
compound,measurement,setting,value
"CC(C(=O)O)c1cccc(C(=O)c2cc3ccccc3o2)c1 (racemic) [Example 1, 2-[3-(2-benzofuroyl)-phenyl]-propionic acid]",ED50,[1],3.6 mg/kg
same,Activity in adjuvant arthritis,[2],active
same,LD50 at 336 h,[3],2500 mg/kg
same,ED50,[4],0.72 mg/kg
same,ED50,[5],9 mg/kg
same,LD50 at 336 h,[6],1300 mg/kg
same,Inhibition of bradykinine-induced bronchospasm,[7],inhibited
"O=C(O)Cc1ccc(C(=O)c2cc3ccccc3o2)cc1 [Example 2, [4-(2-benzofuroyl)-phenyl]acetic acid]",Siegmund percent protection,[4]; 50 mg,28%
same,Carrageenin-induced edema percent protection,[5]; 50 mg,15%
"O=C(O)Cc1cccc(C(=O)c2cc3ccccc3o2)c1 [Example 3, [3-(2-Benzofuroyl)-phenyl]acetic acid]",Trafuril percent protection,[1]; 100 mg,17%
same,Siegmund percent protection,[4]; 10 mg,32%
same,Siegmund percent protection,[4]; 50 mg,50%
same,Carrageenin-induced edema percent protection,[5]; 100 mg,10%
"CC(C(=O)O)c1ccc(C(=O)c2cc3ccccc3o2)cc1 (stereo not shown) [Example 4, 2-[4-(2-Benzofuroyl)-phenyl]propionic acid]",ED50,[1],115 mg/kg
same,ED50,[4],5 mg/kg
same,ED50,[5],170 mg/kg
"Cc1c(C(=O)c2ccc(CC(=O)O)cc2)oc2ccccc12 [Example 5, 4-[2-(3-Methyl-benzofuroyl)]-phenyl acetic acid]",Siegmund percent protection,[4]; 50 mg,14%
same,Carrageenin-induced edema percent protection,[5]; 100 mg,15%
"COc1ccc(C(C)C(=O)O)cc1C(=O)c1cc2ccccc2o1 (stereo not shown) [Example 6, 2-[3-(2-benzofuroyl)-4-methoxy-phenyl]propionic acid]",ED50,[4],~15 mg/kg
same,ED50,[5],> 20 mg/kg
COc1ccc2oc(C(=O)c3cccc(C(C)C(=O)O)c3)cc2c1 (stereo not shown) [Example 7],ED50,[4],< 60 mg/kg
same,ED50,[5],< 20 mg/kg
"CC(C(=O)O)c1cccc(C(=O)c2cc3ccccc3o2)c1 (stereo not drawn) [Example 9, d-2-[3-(2-Benzofuroyl)-phenyl]propionic acid]",Trafuril ED50,[1],2.3 mg/kg
same,Siegmund ED50,[4],< 6 mg/kg
same,Carrageenin-induced edema ED50,[5],8 mg/kg
"CC(C(=O)O)c1cccc(C(=O)c2cc3ccccc3o2)c1 (stereo not drawn) [Example 10, l-2-[3-(2-Benzofuroyl)-phenyl]propionic acid]",Trafuril ED50,[1],8 mg/kg
same,Siegmund ED50,[4],< 6 mg/kg
same,Carrageenin-induced edema ED50,[5],~11.5 mg/kg
